Measured values taken from US20100152434A1, “Protein Kinase-binding Nucleosides and Associated Methods” (priority 2007, published 2010).

Tests used:
MOLT-4 = details: single dose (10 μM)
HOP-92 = details: single dose (10 μM)
LOX IMVI = details: single dose (10 μM)
RXF 393 = details: RXF393; single dose (10 μM)
UO-31 = details: single dose (10 μM)

CNC(=O)NC[C@H]1O[C@@H](n2cnc3c(NC(=O)Nc4ccccc4)ncnc32)C2OC(=O)C[C@H]21 (some centres unmarked) [Compound 33, 3′-(Carboxymethyl)-3′,5′-dideoxy-5′-[(N-methylcarbamoyl)amino]-N^6-(N-phenylcarbamoyl)adenosine-2′,3′-lactone]
anticancer activity (GI) (MOLT-4): potent and selective anticancer activities | anticancer activity (GI) (HOP-92): potent and selective anticancer activities | anticancer activity (GI) (LOX IMVI): potent and selective anticancer activities | anticancer activity (GI) (RXF 393): potent and selective anticancer activities | anticancer activity (GI) (UO-31): potent and selective anticancer activities
